pEC50: −log10 of the molar value. Activity calls are given as the source filed them.
How the values were obtained:
MV4-11 [1] = assay: Antileukemic activity against human MV4-11 cells co-cultured with human HS-27A in presence of Ara-c; format: functional, cell-based
KU812 [2] = assay: Downregulation of STAT5A expression in human KU812 cell line by Western blot analysis; format: functional, cell-based
KCL-22 [3] = assay: Antileukemic activity against human KCL-22 assessed as cell viability incubated for 48 hrs by MTT assay; format: functional, cell-based; details: KCL-22, 48 h
[4] = target: T1, Signal transducer and activator of transcription 5A (Homo sapiens) (UniProt P42229); assay: Inhibition of STAT5A phosphorylation in human KU812 cell line incubated for 24 hrs by Western blotting analysis; format: cell-based
T1 sequence (whole entry): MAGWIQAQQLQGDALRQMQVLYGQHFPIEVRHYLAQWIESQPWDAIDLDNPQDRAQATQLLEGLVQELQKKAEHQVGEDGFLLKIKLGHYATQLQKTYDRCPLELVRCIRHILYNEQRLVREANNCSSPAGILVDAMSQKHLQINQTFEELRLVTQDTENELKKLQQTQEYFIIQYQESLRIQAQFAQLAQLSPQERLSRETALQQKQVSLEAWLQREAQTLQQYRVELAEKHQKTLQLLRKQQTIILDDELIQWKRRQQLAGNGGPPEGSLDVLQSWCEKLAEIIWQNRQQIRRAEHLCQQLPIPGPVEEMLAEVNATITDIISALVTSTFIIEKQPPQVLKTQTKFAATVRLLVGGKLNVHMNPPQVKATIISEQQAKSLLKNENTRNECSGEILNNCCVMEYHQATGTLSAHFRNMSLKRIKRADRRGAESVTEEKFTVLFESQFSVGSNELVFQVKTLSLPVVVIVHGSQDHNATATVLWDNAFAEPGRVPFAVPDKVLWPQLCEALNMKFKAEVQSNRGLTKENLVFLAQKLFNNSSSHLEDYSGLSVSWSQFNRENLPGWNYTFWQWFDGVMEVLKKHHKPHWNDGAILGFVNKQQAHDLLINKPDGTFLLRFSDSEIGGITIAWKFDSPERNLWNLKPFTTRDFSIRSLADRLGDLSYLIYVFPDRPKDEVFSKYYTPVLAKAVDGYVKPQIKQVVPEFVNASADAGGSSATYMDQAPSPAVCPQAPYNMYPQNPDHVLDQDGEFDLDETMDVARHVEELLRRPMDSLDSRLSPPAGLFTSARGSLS

KU812 cell line [5] = assay: Antileukemic activity against human KU812 cell line co-cultured with human HS-27A in presence of Imatinib; format: functional, cell-based
MOLM-13 [6] = assay: Antileukemic activity against human MOLM-13 assessed as cell viability incubated for 48 hrs by MTT assay; format: functional, cell-based; details: MOLM-13, 48 h
[7] = Potency index, ratio of Pimozide EC50 to test compound EC50 for antileukemic activity against human KU812 cell line assessed as inhibition of cell growth incubated for 48 hrs by MTT assay; format: functional
[8] = target: T1, Signal transducer and activator of transcription 5A (Homo sapiens); assay: Inhibition of STAT5A phosphorylation in human Imatinib-resistant K562 cells up to 5 uM incubated for 24 hrs by Western blotting analysis; format: cell-based
[9] = target: T2, Signal transducer and activator of transcription 5B (Homo sapiens) (UniProt P51692); assay: Inhibition of STAT5B phosphorylation in human MV4-11 cells incubated for 24 hrs by Western blotting analysis; format: cell-based
T2 sequence (whole entry): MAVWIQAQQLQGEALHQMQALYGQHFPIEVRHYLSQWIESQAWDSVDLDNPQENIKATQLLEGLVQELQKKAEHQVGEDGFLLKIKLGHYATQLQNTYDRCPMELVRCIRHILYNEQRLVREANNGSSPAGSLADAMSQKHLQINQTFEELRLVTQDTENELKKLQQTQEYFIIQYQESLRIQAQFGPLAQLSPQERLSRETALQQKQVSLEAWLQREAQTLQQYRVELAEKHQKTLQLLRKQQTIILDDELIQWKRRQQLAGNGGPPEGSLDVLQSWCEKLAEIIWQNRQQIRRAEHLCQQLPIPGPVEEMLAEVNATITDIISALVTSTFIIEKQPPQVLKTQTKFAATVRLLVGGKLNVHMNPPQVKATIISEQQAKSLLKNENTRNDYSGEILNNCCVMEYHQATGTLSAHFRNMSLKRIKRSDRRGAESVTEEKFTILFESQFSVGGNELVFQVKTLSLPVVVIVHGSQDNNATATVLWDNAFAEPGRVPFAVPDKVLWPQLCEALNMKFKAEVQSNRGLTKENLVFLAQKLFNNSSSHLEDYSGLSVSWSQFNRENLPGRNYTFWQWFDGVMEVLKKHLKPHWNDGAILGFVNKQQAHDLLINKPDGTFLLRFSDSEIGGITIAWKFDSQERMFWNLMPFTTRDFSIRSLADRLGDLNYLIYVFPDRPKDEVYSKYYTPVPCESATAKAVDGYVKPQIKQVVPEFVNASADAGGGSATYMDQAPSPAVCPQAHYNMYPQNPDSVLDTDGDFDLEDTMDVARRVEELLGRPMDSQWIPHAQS

[10] = Potency index, ratio of Pimozide EC50 to test compound EC50 for antileukemic activity against human MOLM-13 cells assessed as inhibition of cell growth incubated for 48 hrs by MTT assay; format: functional
K562-IMA[r] [11] = assay: Antiproliferative activity against human Imatinib-resistant K562 cells assessed as inhibition of cell growth at 100 nM measured after 72 hrs by MTT assay; format: functional, cell-based
MOLM-13 [12] = assay: Antiproliferative activity against human MOLM-13 cells measured after 72 hrs by MTT assay; format: functional, cell-based
[13] = target: T1, Signal transducer and activator of transcription 5A (Homo sapiens); assay: Inhibition of STAT5A phosphorylation in human MV4-11 cells incubated for 24 hrs by Western blotting analysis; format: cell-based
MV4-11 [14] = assay: Potency index, ratio of Pimozide EC50 to test compound EC50 for antileukemic activity against human MV4-11 cells assessed as inhibition of cell growth incubated for 48 hrs by MTT assay; format: functional
KU812 [15] = assay: Downregulation of STAT5B expression in human KU812 cell line by Western blot analysis; format: functional, cell-based
K562 [16] = assay: Antiproliferative activity against human K562 cells measured after 72 hrs by MTT assay; format: functional, cell-based
MV4-11 [17] = assay: Antiproliferative activity against human MV4-11 cells measured after 72 hrs by MTT assay; format: functional, cell-based
[18] = target: T2, Signal transducer and activator of transcription 5B (Homo sapiens); assay: Inhibition of STAT5B phosphorylation in human KU812 cell line incubated for 24 hrs by Western blotting analysis; format: cell-based
BaF3 = assay: Downregulation of STAT5B N642H mutant expression in mouse BaF3 cells incubated for 24 hrs by Western blot analysis; format: functional, cell-based; details: dose <= 5.0 µM
[19] = target: T2, Signal transducer and activator of transcription 5B (Homo sapiens); assay: Inhibition of STAT5B phosphorylation in human Imatinib-resistant K562 cells up to 5 uM incubated for 24 hrs by Western blotting analysis; format: cell-based
MV4-11 [20] = assay: Antileukemic activity against human MV4-11 cells co-cultured with human HS-27A in presence of Imatinib; format: functional, cell-based
K562-IMA[r] [21] = assay: Downregulation of STAT5A expression in human Imatinib-resistant K562 cells by Western blot analysis; format: functional, cell-based
K562 [22] = assay: Antileukemic activity against human K562 assessed as cell viability incubated for 48 hrs by MTT assay; format: functional, cell-based; details: K562, 48 h
MV4-11 [23] = assay: Downregulation of STAT5B expression in human MV4-11 cells by Western blot analysis; format: functional, cell-based
K562-IMA[r] [24] = assay: Downregulation of STAT5B expression in human Imatinib-resistant K562 cells by Western blot analysis; format: functional, cell-based
MV4-11 [25] = assay: Downregulation of STAT5A expression in human MV4-11 cells by Western blot analysis; format: functional, cell-based
KU812 cell line [26] = assay: Antileukemic activity against human KU812 cell line assessed as inhibition of cell growth incubated for 48 hrs by MTT assay; format: functional, cell-based; details: KU812, 48 h
KU812 cell line [27] = assay: Antiproliferative activity against human KU812 cell line measured after 72 hrs by MTT assay; format: functional, cell-based
[28] = Cytotoxicity against Bone marrow cell (unknown origin) assessed as cell viability incubated for 48 hrs by MTT assay; format: toxicity, cell-based; details: bone marrow cells (unknown origin)
KU812 cell line [29] = assay: Antileukemic activity against human KU812 cell line co-cultured with human HS-27A in presence of Ara-c; format: functional, cell-based
KCL-22 [30] = assay: Antiproliferative activity against human KCL-22 cells measured after 72 hrs by MTT assay; format: functional, cell-based
[31] = Cytotoxicity against human HS-27A assessed as cell viability incubated for 48 hrs by MTT assay; format: toxicity, cell-based; details: HS-27A cells
MV4-11 [32] = assay: Antileukemic activity against human MV4-11 cell line assessed as inhibition of cell growth incubated for 48 hrs by MTT assay; format: functional, cell-based; details: MV4-11, 48 h
[33] = Potency index, ratio of Pimozide EC50 to test compound EC50 for antileukemic activity against human KCL-22 cells assessed as inhibition of cell growth incubated for 48 hrs by MTT assay; format: functional
[34] = Potency index, ratio of Pimozide EC50 to test compound EC50 for antileukemic activity against human K562 cells assessed as inhibition of cell growth incubated for 48 hrs by MTT assay; format: functional

CC1(C)CCN(CCOc2ccc3[nH]ccc3c2)c2cccc(-c3cnc(N)nc3)c21
44100 nM: EC50 at 48 h [31]
12000 nM: EC50 at 48 h [28]
6.22: pEC50 (KU812 cell line [26])
6.10: pEC50 (K562 [22])
inactive: Activity (KU812 [2]) | Activity (MV4-11 [25])
6.30: pEC50 (KCL-22 [3])
6.52: pEC50 (MOLM-13 [6]) | pEC50 (MV4-11 [32])
active: Activity (MV4-11 [1]) | inhibition [4] | Activity (KU812 cell line [5]) | inhibition [8] | inhibition [9] | Activity (K562-IMA[r] [11]) | Activity (MOLM-13 [12]) | inhibition [13] | Activity (KU812 [15]) | Activity (K562 [16]) | Activity (MV4-11 [17]) | inhibition [18] | Activity (BaF3) Dose-dependent-effect | inhibition [19] | Activity (MV4-11 [20]) | Activity (K562-IMA[r] [21]) | Activity (MV4-11 [23]) | Activity (K562-IMA[r] [24]) | Activity (KU812 cell line [27]) | Activity (KU812 cell line [29]) | Activity (KCL-22 [30])
5: Ratio EC50 [7] | Ratio EC50 [10] | Ratio EC50 (MV4-11 [14]) | Ratio EC50 [33] | Ratio EC50 [34]
